Test results taken from patent publication US20220387357A1, “Method of Dosing a Pain Therapeutic” (priority 2021, published 2022).
Like-named read-outs stand apart in the source and are kept apart here.

What was measured:
[1] = Nonclinical studies of analgesia compared with morphine; assay type: in vivo
[2] = assay type: in vivo, human
From the text: Tachycardia was the most common adverse event (AE) in this study, reported in 5 of 48 subjects (10%) following active treatment and in no subjects following placebo; all of the treatment-emergent AEs (TEAEs) of tachycardia were deemed related to study treatment.
The Toxicity Grading Scale for Healthy Adult and Adolescent Volunteers Enrolled in Preventative Vaccine Clinical Trials criteria for tachycardia are defined as follows: […]
Severe (Grade 3): >130 bpm
In this study, tachycardia was dose limiting at a level >130 bpm.

[3] = assay type: in vivo, humans
From the text: (§1) Nevertheless, CMX-020 may produce adverse side effects when given at improper dosages. Methods of administrating an effective amount of the compound CMX-020 to produce an analgesia effective, while still being within a safe and tolerable dose, is both necessary and desirable.

[4] = Preclinical animal models of pain; assay type: in vivo; conditions: acute pain, visceral pain, fibromyalgia, diabetic peripheral neuropathy, sciatica, chemotherapy induced pain, osteoarthritis models
From the text: as §1

[5] = Acute pain tail-flick assay, side-by-side mice studies; assay type: in vivo; conditions: side-by-side comparison, similar to opioids
CB1 receptors = CB1 receptors (Homo sapiens, UniProt P21554); conditions: mediated through CB1 receptors; cited from earlier work
[6] = Subject 0048, 0.24 mg/kg 15-minute infusion
[7] = Subject 0057, 0.32 mg/kg 30-minute infusion
[8] = following active treatment, all dose levels

CB1 receptors, sequence (P21554 whole entry, the tested form may be a part): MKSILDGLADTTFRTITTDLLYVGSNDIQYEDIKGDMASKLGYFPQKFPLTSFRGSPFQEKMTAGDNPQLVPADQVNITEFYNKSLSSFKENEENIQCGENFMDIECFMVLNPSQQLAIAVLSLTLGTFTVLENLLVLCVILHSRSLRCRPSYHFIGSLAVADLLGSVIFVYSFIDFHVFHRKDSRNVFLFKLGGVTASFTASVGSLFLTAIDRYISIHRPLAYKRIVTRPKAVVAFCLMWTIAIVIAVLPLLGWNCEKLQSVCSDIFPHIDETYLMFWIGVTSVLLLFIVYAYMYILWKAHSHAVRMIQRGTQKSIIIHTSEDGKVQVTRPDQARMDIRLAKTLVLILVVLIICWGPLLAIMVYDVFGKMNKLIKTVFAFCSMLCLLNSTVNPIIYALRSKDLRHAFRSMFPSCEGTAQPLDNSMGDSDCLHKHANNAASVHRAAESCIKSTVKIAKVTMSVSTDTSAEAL

CCCCCC(=O)N(CCC=C=CCCCC=C=CCC=C=CCCCC(=O)NC1CC1)C(C)C [CMX-020]
Analgesia compared with morphine [1]: analgesia equivalent to that achieved by morphine | Number of elevated heart rate assessed as clinically significant ([2]; 0.32 mg/kg and 0.24 mg/kg 15-minute infusion groups compared with the other dose levels and placebo): higher number | Doses at which tachycardia was reported ([2]; 0.32 mg/kg and 0.24 mg/kg 15 minutes infusion and 0.32 mg/kg 30 minute infusion): only at the three highest doses | Time of peak heart rate following the start of treatment administration ([2]; Subject 0033, 0.32 mg/kg 15-minute infusion): 16 min | Heart rate after decrease ([2]; Subject 0033, 0.32 mg/kg 15-minute infusion, 15 minutes following the peak heart rate): 113 bpm | Peak Pulse ([2]; Subject 0033, Cohort 5, 0.32 mg/kg 15-minute infusion): 138 bpm | Time of peak heart rate following the start of dose administration ([2]; Subject 0036, 0.32 mg/kg 15-minute infusion): 16 min | Heart rate after decrease ([2]; Subject 0036, 0.32 mg/kg 15-minute infusion, 15 minutes following the start of treatment administration (so in the source)): 101 bpm | Peak Pulse ([2]; Subject 0036, Cohort 5, 0.32 mg/kg 15-minute infusion): 110 bpm | Time of elevated heart rate following the start of dose administration ([2]; Subject 0045, 0.24 mg/kg 15-minute infusion): 11 min | Heart rate after decrease ([2]; Subject 0045, 0.24 mg/kg 15-minute infusion, 10 minutes following the start of treatment administration (so in the source)): 109 bpm | Peak Pulse ([2]; Subject 0045, Cohort 6, 0.24 mg/kg 15-minute infusion (discontinued, total dose received 0.156 mg/kg)): 156 bpm | Time of TEAE of tachycardia following start of treatment administration [2, 6]: 11 min | Time of peak heart rate following start of treatment administration [2, 6]: 16 min | Heart rate after decrease ([2]; Subject 0048, 0.24 mg/kg 15-minute infusion, 15 minutes following the peak heart rate): 103 bpm | Peak Pulse ([2]; Subject 0048, Cohort 6, 0.24 mg/kg 15-minute infusion): 109 bpm | Time of TEAE of tachycardia following start of treatment administration [2, 7]: 16 min | Time of peak heart rate following start of treatment administration [2, 7]: 20 min | Heart rate after decrease ([2]; Subject 0057, 0.32 mg/kg 30-minute infusion, 20 minutes following the peak heart rate): 97 bpm | Peak Pulse ([2]; Subject 0057, Cohort 8, 0.32 mg/kg 30-minute infusion): 110 bpm | Time of peak in elevated heart rate following the start of treatment administration ([2]; cohorts 5 and 6, 15-minute infusions): 11 to 16 min | Time of peak in elevated heart rate ([2]; cohorts 7 and 8, 30-minute infusions): approximately 30 minutes | Incidence of tachycardia (adverse event) [2, 8]: 10% | Subjects reporting tachycardia (adverse event) [2, 8]: 5 of 48 | Efficacy in proof-of-concept trial in sciatic pain ([3]; humans, sciatic pain): indicated efficacy | Safety when administered to humans ([3]; intravenous and oral formulations, several dose levels): demonstrated the safety | Pain response in animal models of pain [4]: effectively reduce the pain response | Analgesic efficacy in the acute pain tail-flick assay [5]: highest level of analgesic efficacy

CCCCC/C=C\C/C=C\C/C=C\C/C=C\CCCC(=O)Nc1ccc(O)cc1 [AM404, reference compound]
Analgesic efficacy in the acute pain tail-flick assay [5]: highest level of analgesic efficacy | Anticonvulsant action (CB1 receptors): anticonvulsant action mediated through CB1 receptors
